In series [1] the test system is SREBP. Description: SREBP mRNA expression assay in HepG2 cells (RT-PCR). It is filed as cell-based, human. Particulars: Homo sapiens, HepG2, 8 h, HepG2 cells, 300 nM rexinoids, 8 h, SREBP mRNA by RT-PCR; mean ± SD of 3 experiments; read-out: SREBP activation Fold induction vs. Control. As to the method:
The goals of our structure–activity relationship (SAR) studies were to explore and discover new scaffolds that not only bind to RXR but also are able to independently modulate both iNOS and SREBP activity in accordance with a previously described screening paradigm. To characterize the effect of the novel rexinoids on SREBP elevation in vitro, HepG2 cells were treated with 300 nM rexinoids for 8 h and SREBP mRNA levels were measured by RT-PCR. SREBP expression ranged from no change to a 4.6-fold induction compared to the vehicle control when treated with the novel compounds. […] Analogs MSU- 41402, 41582, 41407, 41566, 41844, 41845, 42011, and 42166 induced an SREPB mRNA fold expression change of 1–1.5 normalized to a vehicle control, while bexarotene induced an mRNA fold expression change of > 2 (Table 1).
HepG2 were plated in 6-well plates (1 × 10^6 cells/well) and, after allowing the cells to attach overnight, were treated with 300 nM rexinoids and/or varying concentrations of T0901317 (TOCRIS # 2373), GSK 2033 (TOCRIS # 5694), HX 531 (TOCRIS # 3912) for 8 h. Total RNA was isolated with TRIzol (Invitrogen, Carlsbad, CA) and 2 µg RNA was used to synthesize cDNA using the SuperScript III reverse transcriptase kit (Invitrogen, Carlsbad, CA). Primers (IDT) for SREBP (F: 5′-GCCGGTTGATAGGCAGCTT-3′; R: 5′-GGTGAGTGGCGGAACCATT-3′) and GAPDH (F: 5′-[…]-3′; R: 5′-[…]-3′), the SYBR Green Supermix (Bio-rad Laboratories, Hercules, CA) and the QuantStudio 7 Flex Real-Time PCR system (95 °C for 20 s followed by 40 cycles of 95 °C for 15 s and 60 °C for 1 min were used to detect mRNA expression. Relative SREBP/GAPDH gene expression was calculated by the delta-delta Ct method. To evaluate protein expression by western blotting, HepG2 cells were plated as above and treated with 300 nM of rexinoids for 24 h. Cells were harvested and lysed in RIPA buffer (1 M Tris–Cl, 5 M NaCl, pH 7.4, 0.5 M EDTA, 25 mM sodium deoxycholate, 1% triton-X, 0.1% SDS, 0.0125% aprotinin) with protease inhibitors (1% PMSF/0.5% apoprotein/0.1%leupeptin). Protein concentration was measured using a BCA assay (Sigma-Aldrich). Proteins (10 µg/well) were separated in 10% SDS-PAGE gels and transferred to nitrocellulose membranes. Membranes were incubated with SREBP (Active Motif; 1:1000) and GAPDH (Santa Cruz Biotechnology; 1:8000) primary antibodies followed by anti-rabbit secondary antibodies conjugated to horseradish peroxidase (Cell Signaling). Signal was detected using the ECL Western Blotting Substrate (GE Healthcare), and protein levels quantified using ImageJ.

Series [2] in a line: Steady state drug levels in plasma after 12 weeks on diet (HPLC-MS). It is filed as in vivo, A/J mice. To be noted: A/J, mouse, oral, 100 mg/kg diet for 12 weeks, LC-MS, n = 8, mean ± SE. As to the method: Blood was collected via cardiac puncture into 1 ml lithium heparin tubes (Greiner Bio-one). Blood was centrifuged at 5000 g for 5 min at 4 °C. Plasma was separated and frozen at − 80 °C until processed as described. Acetonitrile was added to precipitate plasma proteins. Samples were centrifuged at 14,000 g for 5 min, and the supernatant was filtered with a 0.2 µm syringe filter. Each sample was dried overnight and reconstituted in 200 µl of 50:50 methanol:water solution for analysis via HPLC. HPLC was performed on a Quatro Premier instrument with an Ascentis Express C18 column and an Acquity UPLC system. The mobile phase A consisted of 10 mM aq. ammonium acetate and the mobile phase B consisted of methanol. The following gradient was applied 99–5% A (0–4 min), 5% A (4–5.1 min), 5–99% A (5.1–6 min). The flow rate was 0.3 ml/minute, and bexarotene and MSU-42011 were detected at ~ 4.5 min. A standard curve was prepared by processing plasma from untreated animals and spiking the samples with 0.1–3 μM of the appropriate rexinoid then reconstituting the samples.

Series [3] can be described thus: Mouse weights as a marker of drug toxicity. Type of series: in vivo, A/J mice. To be noted: rexinoids in diet; initial week 6, final week 20. An excerpt: Mouse weights were monitored as a marker of drug toxicity (Supplemental Fig. 3). […] There were no significant differences in the average weights between groups of mice on single drugs.
Control Bexarotene 42011 C/P Bex + C/P 42011 + C/P
Initial weight Final weight
Supplemental Fig 3: Mouse weights. A/J mice were weighed weekly during the study. Values shown represent average mouse weights (n = 14-15/group) before treatment diets (initial weight at week 6) and at the end of the study (final weight at week 20). * p < 0.01 compared to control, # p < 0.01 compared to bexarotene, ! p < 0.05 compared to MSU-42011 (one-way ANOVA followed by Tukey HSD); ** p < 0.05, *** p < 0.01 (two-tailed t test).

A short description of series [4]: Lipid levels in plasma (triglyceride and cholesterol kits). Particulars: 100 mg/kg diet for 12 weeks, n = 8, mean ± SE. Type of series: in vivo, A/J mice. As to the method:
Triglyceride and cholesterol levels in plasma (n = 8 mice/group) harvested at necropsy were measured using the Triglyceride Quantification Assay Kit (Abcam) or the Cholesterol Quantification Kit (Sigma-Aldrich), respectively, using the recommended protocol supplied by the manufacturer.

The test system of series [5] is iNOS. Description: iNOS inhibition assay (LPS-induced NO production, Griess reaction). To be noted: Mus musculus; RAW264.7 cells, 0–1000 nM rexinoids, LPS 1 ng/ml 24 h, NO by Griess assay; mean ± SE of 3 experiments; read-out: iNOS suppression IC50. Type of series: cell-based, murine. As for the experimental part:
To evaluate the anti-inflammatory effects of the novel rexinoids, we utilized the iNOS suppression assay. Inhibition of iNOS in vitro directly correlates with efficacy in our preclinical model of Kras-driven lung cancer. RAW264.7 macrophage-like cells were treated with 0–1 μM rexinoids and stimulated with 1 ng/mL lipopolysaccharide for 24 h, and then NO was measured in the media.
RAW264.7 cells were plated in 96-well plates (20,000 cells/well). After overnight attachment, cells were treated with twofold serial dilutions (0–1000 nM) of rexinoids. After a 20 min incubation at 37 °C, cells were stimulated with 1 ng/mL LPS for 24 h. NO production was measured in culture medium using the Griess reaction. IC50 values were calculated using GraphPad Prism 8.1.2 software for Windows using a log([nM drug concentration]) vs. response curve fit.

What is called IC50 is the midpoint of a concentration-inhibition curve.

Take `C=C(c1ccc(C(=O)O)cc1)c1cc2c(cc1C)C(C)(C)CCC2(C)C` [Bexarotene]: in series [1], the fold induction at 0.3 µM is greater than 2. In series [2], the concentration at 12 weeks is 81.2 ± 14.9 nM. Moreover, the “Mouse weights during the study” value in series [3] is given as “gained weight as expected”. In addition, in series [4], the Cholesterol in plasma is listed as 1.99 ± 0.1ǂ µg/µL and the Triglycerides in plasma was 2.21 ± 0.16ǂ nmol/µL. In series [4] (listed as bexarotene), this compound came in with a Cholesterol in plasma of 1.99 ± 0.1 µg/µL and a Triglycerides in plasma of 2.21 ± 0.16 nmol/µL. Besides, the IC50 in series [5] came out at 143 ± 19 nM.

The values above are taken from article PMC7746742, “The novel rexinoid MSU-42011 is effective for the treatment of preclinical Kras-driven lung cancer” (Scientific Reports, 2020).
